Literature values, collected in patent US20080260818A1, “Controlled Absorption of Statins in the Intestine” (DEXCEL PHARMA TECHNOLOGIES LTD., priority 2005, published 2008).

Experiments:
HMG-CoA reductase = target: T1, HMG-CoA reductase (Homo sapiens, UniProt P04035); settings: considering the beta-hydroxy acid form as the drug
T1 sequence (P04035 1-888): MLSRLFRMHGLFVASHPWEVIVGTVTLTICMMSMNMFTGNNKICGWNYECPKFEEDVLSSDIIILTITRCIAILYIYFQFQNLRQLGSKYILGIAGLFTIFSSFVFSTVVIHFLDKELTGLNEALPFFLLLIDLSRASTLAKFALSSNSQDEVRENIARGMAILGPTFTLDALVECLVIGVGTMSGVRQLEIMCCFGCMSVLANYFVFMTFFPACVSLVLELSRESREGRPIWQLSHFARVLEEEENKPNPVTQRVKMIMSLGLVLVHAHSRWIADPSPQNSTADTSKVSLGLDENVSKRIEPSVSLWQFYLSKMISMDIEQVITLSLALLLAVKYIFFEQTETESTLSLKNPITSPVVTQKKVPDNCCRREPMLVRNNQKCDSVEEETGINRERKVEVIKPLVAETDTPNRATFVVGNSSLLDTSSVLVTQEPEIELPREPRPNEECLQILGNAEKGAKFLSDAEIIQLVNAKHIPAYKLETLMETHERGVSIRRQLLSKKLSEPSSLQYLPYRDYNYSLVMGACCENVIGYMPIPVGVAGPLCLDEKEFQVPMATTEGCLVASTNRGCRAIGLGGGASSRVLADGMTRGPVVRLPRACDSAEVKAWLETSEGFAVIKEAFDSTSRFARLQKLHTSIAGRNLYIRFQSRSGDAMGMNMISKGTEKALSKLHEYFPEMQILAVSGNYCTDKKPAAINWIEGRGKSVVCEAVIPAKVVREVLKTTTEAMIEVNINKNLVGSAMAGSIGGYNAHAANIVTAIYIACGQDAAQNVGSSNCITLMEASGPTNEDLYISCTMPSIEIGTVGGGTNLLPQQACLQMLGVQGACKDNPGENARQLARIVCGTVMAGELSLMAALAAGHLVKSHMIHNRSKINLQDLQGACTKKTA

[1] = system: plasma proteins, primarily albumin; settings: Simvastatin and its active acid forms

SMILES | HMG-CoA reductase activity retained (HMG-CoA reductase) | bound to plasma proteins, primarily to albumin [1]
CCC(C)(C)C(=O)OC1CC(C)(O)C=C2C=CC(C)C(CCC3CC(O)CC(=O)O3)C21 (stereo not drawn) [6-beta-hydroxy simvastatin] | ~50% | –
CCC(C)(C)C(=O)OC1CC(CO)C=C2C=CC(C)C(CCC3CC(O)CC(=O)O3)C21 (stereo not drawn) [6-beta-hydroxymethyl] | approximately 40% | –
CCC(C)(C)C(=O)O[C@H]1C[C@@H](C)C=C2C=C[C@H](C)[C@H](CC[C@@H]3C[C@@H](O)CC(=O)O3)[C@H]21 [simvastatin] | – | more than 95%
